From patent US9145346B1, “Process for 2,2,4,4-tetramethylcyclobutane-1,3-diol crystallization” (Eastman Chemical Company, priority 2014, dated 2015)

Assay: Solubility (saturated concentration) of cis-TMCD and trans-TMCD in various solvents, by gas chromatography
Type: physicochemical
Protocol: All concentrations were measured by gas chromatography. Water concentration was measured by Karl Fischer titrations.
The solubility of cis-TMCD and trans-TMCD in various solvents was determined by charging cis-TMCD, trans-TMCD, and the solvent or solvents of interest into a 120 ml jacketed glass vessel. The vessel was equipped with a stir bar in order to provide mixing and the jacket was used to control the temperature of the vessel contents. The vessel was equipped with charging and sampling ports on top of the vessel.
The slurry was allowed to stand for a time sufficient for the solids to saturate the solvent at the desired temperature. At that time, a sample of the solution was withdrawn from the cell using a fritted pipette so as to remove only the liquid phase. The sample was analyzed for cis-TMCD and trans-TMCD isomer content. These values represent the saturated concentration of each isomer at the sampling temperature.
After this, the cell contents were heated to the next desired temperature and the contents were held for another time interval sufficient to allow the slurry to equilibrate. A sample was then taken of the solution and analyzed. Following this procedure, solubility data was collected up to the final desired temperature.
The reported solubility of each isomer at a given temperature for a given solvent is expressed as a weight % relative to the saturated concentration of the isomer at the highest temperature reported for a given solvent.

- Relative solubility (2-Ethylhexanol, 0.7° C., relative to 89.8° C.): 10% relative wt %
- Relative solubility (2-Ethylhexanol, 12.5° C., relative to 89.8° C.): 16% relative wt %
- Relative solubility (2-Ethylhexanol, 24.7° C., relative to 89.8° C.): 21% relative wt %
- Relative solubility (2-Ethylhexanol, 40.0° C., relative to 89.8° C.): 29% relative wt %
- Relative solubility (2-Ethylhexanol, 49.9° C., relative to 89.8° C.): 37% relative wt %
- Relative solubility (2-Ethylhexanol, 60.2° C., relative to 89.8° C.): 46% relative wt %
- Relative solubility (2-Ethylhexanol, 69.3° C., relative to 89.8° C.): 58% relative wt %
- Relative solubility (2-Ethylhexanol, 79.3° C., relative to 89.8° C.): 76% relative wt %
- Relative solubility (2-Ethylhexanol, 89.8° C., relative to 89.8° C.): 100% relative wt %
- Relative solubility (2-Ethylhexyl Acetate, 5.9° C., relative to 79.4° C.): 5% relative wt %
- Relative solubility (2-Ethylhexyl Acetate, 15.5° C., relative to 79.4° C.): 8% relative wt %
- Relative solubility (2-Ethylhexyl Acetate, 25.1° C., relative to 79.4° C.): 12% relative wt %
- Relative solubility (2-Ethylhexyl Acetate, 40.5° C., relative to 79.4° C.): 22% relative wt %
- Relative solubility (2-Ethylhexyl Acetate, 49.8° C., relative to 79.4° C.): 31% relative wt %
- Relative solubility (2-Ethylhexyl Acetate, 49.9° C., relative to 79.4° C.): 32% relative wt %
- Relative solubility (2-Ethylhexyl Acetate, 60.5° C., relative to 79.4° C.): 47% relative wt %
- Relative solubility (2-Ethylhexyl Acetate, 70.3° C., relative to 79.4° C.): 74% relative wt %
- Relative solubility (2-Ethylhexyl Acetate, 79.4° C., relative to 79.4° C.): 100% relative wt %
- Relative solubility (2-Ethylhexyl Acetate, −5.0° C., relative to 79.4° C.): 4% relative wt %
- Relative solubility (CHDM, 69.0° C., relative to 106.9° C.): 27% relative wt %
- Relative solubility (CHDM, 79.2° C., relative to 106.9° C.): 58% relative wt %
- Relative solubility (CHDM, 88.9° C., relative to 106.9° C.): 69% relative wt %
- Relative solubility (CHDM, 95.6° C., relative to 106.9° C.): 85% relative wt %
- Relative solubility (CHDM, 106.9° C., relative to 106.9° C.): 100% relative wt %
- Relative solubility (Dimethyl Carbonate, 6.2° C., relative to 70.1° C.): 7% relative wt %
- Relative solubility (Dimethyl Carbonate, 16.3° C., relative to 70.1° C.): 9% relative wt %
- Relative solubility (Dimethyl Carbonate, 25.7° C., relative to 70.1° C.): 14% relative wt %
- Relative solubility (Dimethyl Carbonate, 40.5° C., relative to 70.1° C.): 28% relative wt %
- Relative solubility (Dimethyl Carbonate, 54.7° C., relative to 70.1° C.): 55% relative wt %
- Relative solubility (Dimethyl Carbonate, 70.1° C., relative to 70.1° C.): 100% relative wt %
- Relative solubility (Ethanol, 5.3° C., relative to 60.3° C.): 47% relative wt %
- Relative solubility (Ethanol, 14.3° C., relative to 60.3° C.): 52% relative wt %
- Relative solubility (Ethanol, 25.5° C., relative to 60.3° C.): 68% relative wt %
- Relative solubility (Ethanol, 39.9° C., relative to 60.3° C.): 81% relative wt %
- Relative solubility (Ethanol, 50.1° C., relative to 60.3° C.): 88% relative wt %
- Relative solubility (Ethanol, 60.3° C., relative to 60.3° C.): 100% relative wt %
- Relative solubility (Ethyl Acetate, 4.2° C., relative to 54.9° C.): 15% relative wt %
- Relative solubility (Ethyl Acetate, 15.0° C., relative to 54.9° C.): 24% relative wt %
- Relative solubility (Ethyl Acetate, 26.2° C., relative to 54.9° C.): 37% relative wt %
- Relative solubility (Ethyl Acetate, 40.5° C., relative to 54.9° C.): 62% relative wt %
- Relative solubility (Ethyl Acetate, 54.9° C., relative to 54.9° C.): 100% relative wt %
- Relative solubility (Ethyl Acetate, −5.1° C., relative to 54.9° C.): 12% relative wt %
- Relative solubility (Ethylene Glycol, 26.5° C., relative to 91.4° C.): 25% relative wt %
- Relative solubility (Ethylene Glycol, 36.2° C., relative to 91.4° C.): 32% relative wt %
- Relative solubility (Ethylene Glycol, 48.5° C., relative to 91.4° C.): 42% relative wt %
- Relative solubility (Ethylene Glycol, 61.5° C., relative to 91.4° C.): 57% relative wt %
- Relative solubility (Ethylene Glycol, 72.1° C., relative to 91.4° C.): 68% relative wt %
- Relative solubility (Ethylene Glycol, 82.2° C., relative to 91.4° C.): 87% relative wt %
- Relative solubility (Methanol, 16.9° C., relative to 41.3° C.): 86% relative wt %
- Relative solubility (Methanol, 25.6° C., relative to 41.3° C.): 91% relative wt %
- Relative solubility (Methanol, 41.3° C., relative to 41.3° C.): 100% relative wt %
- Relative solubility (Methanol, −2.5° C., relative to 41.3° C.): 77% relative wt %
- Relative solubility (Methyl Acetate, 5.9° C., relative to 49.8° C.): 15% relative wt %
- Relative solubility (Methyl Acetate, 15.5° C., relative to 49.8° C.): 22% relative wt %
- Relative solubility (Methyl Acetate, 25.1° C., relative to 49.8° C.): 33% relative wt %
- Relative solubility (Methyl Acetate, 40.5° C., relative to 49.8° C.): 59% relative wt %
- Relative solubility (Methyl Acetate, 49.8° C., relative to 49.8° C.): 100% relative wt %
- Relative solubility (Methyl Acetate, −5.0° C., relative to 49.8° C.): 9% relative wt %
- Relative solubility (Methyl i-Butyl Carbinol, 9.4° C., relative to 81.9° C.): 20% relative wt %
- Relative solubility (Methyl i-Butyl Carbinol, 20.4° C., relative to 81.9° C.): 25% relative wt %
- Relative solubility (Methyl i-Butyl Carbinol, 31.1° C., relative to 81.9° C.): 31% relative wt %
- Relative solubility (Methyl i-Butyl Carbinol, 40.0° C., relative to 81.9° C.): 40% relative wt %
- Relative solubility (Methyl i-Butyl Carbinol, 49.5° C., relative to 81.9° C.): 49% relative wt %
- Relative solubility (Methyl i-Butyl Carbinol, 60.0° C., relative to 81.9° C.): 62% relative wt %
- Relative solubility (Methyl i-Butyl Carbinol, 69.5° C., relative to 81.9° C.): 78% relative wt %
- Relative solubility (Methyl i-Butyl Carbinol, 81.9° C., relative to 81.9° C.): 100% relative wt %
- Relative solubility (i-Butyl Acetate, 4.8° C., relative to 90.1° C.): 5% relative wt %
- Relative solubility (i-Butyl Acetate, 16.9° C., relative to 90.1° C.): 8% relative wt %
- Relative solubility (i-Butyl Acetate, 25.6° C., relative to 90.1° C.): 11% relative wt %
- Relative solubility (i-Butyl Acetate, 41.3° C., relative to 90.1° C.): 19% relative wt %
- Relative solubility (i-Butyl Acetate, 56.2° C., relative to 90.1° C.): 32% relative wt %
- Relative solubility (i-Butyl Acetate, 70.2° C., relative to 90.1° C.): 52% relative wt %
- Relative solubility (i-Butyl Acetate, 90.1° C., relative to 90.1° C.): 100% relative wt %
- Relative solubility (i-Butyl Acetate, −2.5° C., relative to 90.1° C.): 5% relative wt %
- Relative solubility (n-Butanol, 5.9° C., relative to 60.5° C.): 46% relative wt %
- Relative solubility (n-Butanol, 15.5° C., relative to 60.5° C.): 51% relative wt %
- Relative solubility (n-Butanol, 25.1° C., relative to 60.5° C.): 59% relative wt %
- Relative solubility (n-Butanol, 40.5° C., relative to 60.5° C.): 73% relative wt %
- Relative solubility (n-Butanol, 49.8° C., relative to 60.5° C.): 86% relative wt %
- Relative solubility (n-Butanol, 49.9° C., relative to 60.5° C.): 86% relative wt %
- Relative solubility (n-Butanol, 60.5° C., relative to 60.5° C.): 100% relative wt %
- Relative solubility (n-Butanol, −5.0° C., relative to 60.5° C.): 41% relative wt %
- Relative solubility (n-Butyl Propionate, 6.5° C., relative to 91.9° C.): 4% relative wt %
- Relative solubility (n-Butyl Propionate, 16.8° C., relative to 91.9° C.): 7% relative wt %
- Relative solubility (n-Butyl Propionate, 27.7° C., relative to 91.9° C.): 10% relative wt %
- Relative solubility (n-Butyl Propionate, 41.7° C. (sample 4), relative to 91.9° C.): 17% relative wt %
- Relative solubility (n-Butyl Propionate, 41.7° C. (sample 5), relative to 91.9° C.): 18% relative wt %
- Relative solubility (n-Butyl Propionate, 52.0° C., relative to 91.9° C.): 27% relative wt %
- Relative solubility (n-Butyl Propionate, 61.5° C., relative to 91.9° C.): 37% relative wt %
- Relative solubility (n-Butyl Propionate, 69.1° C., relative to 91.9° C.): 50% relative wt %
- Relative solubility (n-Butyl Propionate, 80.7° C., relative to 91.9° C.): 74% relative wt %
- Relative solubility (n-Butyl Propionate, 91.9° C., relative to 91.9° C.): 100% relative wt %
- Relative solubility (n-Propyl Propionate, 7.0° C., relative to 72.2° C.): 10% relative wt %
- Relative solubility (n-Propyl Propionate, 17.1° C., relative to 72.2° C.): 14% relative wt %
- Relative solubility (n-Propyl Propionate, 26.7° C., relative to 72.2° C.): 21% relative wt %
- Relative solubility (n-Propyl Propionate, 37.4° C., relative to 72.2° C.): 30% relative wt %
- Relative solubility (n-Propyl Propionate, 42.4° C., relative to 72.2° C.): 34% relative wt %
- Relative solubility (n-Propyl Propionate, 52.2° C., relative to 72.2° C.): 50% relative wt %
- Relative solubility (n-Propyl Propionate, 62.9° C., relative to 72.2° C.): 72% relative wt %
- Relative solubility (n-Propyl Propionate, 72.2° C., relative to 72.2° C.): 100% relative wt %
Structure (SMILES): CC1(C)[C@H](O)C(C)(C)[C@@H]1O [cis-TMCD, cis-2,2,4,4-tetramethylcyclobutane-1,3-diol]
